From patent publication US5543415A, “Antidepressants” (Kyowa Hakko Kogyo Co., Ltd., priority 1992, dated 1996)

Tested on: ddY-strain male mice
Test: Acute Toxicity Test (minimum lethal dose, oral)
Type: in vivo
Settings: seven days after administration
Protocol: Test compounds were orally administered to groups of ddY-strain male mice weighing 20±1 g, each group consisting of three mice. Seven days after the administration, minimum lethal dose (MLD) of each compound was determined by observing the mortality.

Structure (SMILES) | MLD (minimum lethal dose) [mg/kg]
CCn1c(=O)c2[nH]c(/C=C/c3ccc(OCOC)cc3)nc2n(CC)c1=O [Compound 145, (E)-1,3-Diethyl-8-(4-methoxymethoxystyryl)xanthine] | > 100
CCn1c(=O)c2c(nc(/C=C/c3ccc(OCOC)cc3)n2C)n(CC)c1=O [Compound 146, (E)-1,3-Diethyl-8-(4-methoxymethoxystyryl)-7-methylxanthine] | > 100
CCCCOc1ccc(/C=C/c2nc3c([nH]2)c(=O)n(CC)c(=O)n3CC)cc1 [Compound 147, (E)-8-(4-Butoxystyryl)-1,3-diethylxanthine] | > 100
CCn1c(=O)c2[nH]c(/C=C/c3ccc(F)cc3)nc2n(CC)c1=O [Compound 149, (E)-1,3-Diethyl-8-(4-fluorostyryl)xanthine] | > 100
CCn1c(=O)c2[nH]c(/C=C/c3ccc(C)cc3)nc2n(CC)c1=O [Compound 151, (E)-1,3-Diethyl-8-(4-methylstyryl)xanthine] | > 100
CCn1c(=O)c2[nH]c(/C=C/c3cc(C(F)(F)F)cc(C(F)(F)F)c3)nc2n(CC)c1=O [Compound 153, (E)-8-[3,5-Bis(trifluoromethyl)styryl]-1,3-diethylxanthine] | > 100
CCn1c(=O)c2c(nc(/C=C/c3cc(C(F)(F)F)cc(C(F)(F)F)c3)n2C)n(CC)c1=O [Compound 154, (E)-8-[3,5-Bis (trifluoromethyl)styryl]-1,3-diethyl-7-methylxanthine] | > 100
CCn1c(=O)c2[nH]c(/C=C/c3cc(F)cc(F)c3)nc2n(CC)c1=O [Compound 155, (E)-8-(3,5-Difluorostyryl)-1,3-diethylxanthine] | > 100
CCn1c(=O)c2c(nc(/C=C/c3cc(F)cc(F)c3)n2C)n(CC)c1=O [Compound 156, (E)-8-(3,5-Difluorostyryl)-1,3-diethyl-7-methylxanthine] | > 100
CCn1c(=O)c2[nH]c(/C=C/c3ccccc3OC)nc2n(CC)c1=O [Compound 157, (E)-1,3-Diethyl-8-(2-methoxystyryl)xanthine] | > 100
CCn1c(=O)c2c(nc(/C=C/c3ccccc3OC)n2C)n(CC)c1=O [Compound 158, (E)-1,3-Diethyl-8-(2-methoxystyryl)-7-methylxanthine] | > 100
CCn1c(=O)c2[nH]c(/C=C/c3cccc([N+](=O)[O-])c3)nc2n(CC)c1=O [Compound 159, (E)-1,3-Diethyl-8-(3-nitrostyryl)xanthine] | > 100
CCn1c(=O)c2c(nc(/C=C/c3cccc([N+](=O)[O-])c3)n2C)n(CC)c1=O [Compound 160, (E)-1,3-Diethyl-7-methyl-8-(3-nitrostyryl)xanthine] | > 100
CCn1c(=O)c2[nH]c(/C=C/c3cccc(Br)c3)nc2n(CC)c1=O [Compound 161, (E)-8-(3-Bromostyryl)-1,3-diethylxanthine] | > 100
CCn1c(=O)c2[nH]c(/C=C/c3cccc(C(F)(F)F)c3)nc2n(CC)c1=O [Compound 163, (E)-1,3-Diethyl-8-(3-trifluoromethylstyryl)xanthine] | > 100
CCn1c(=O)c2c(nc(/C=C/c3cccc(C(F)(F)F)c3)n2C)n(CC)c1=O [Compound 164, (E)-1,3-Diethyl-7-methyl-8-(3-trifluoromethylstyryl)xanthine] | > 100
CCn1c(=O)c2[nH]c(/C=C/c3cc4c(cc3Br)OCO4)nc2n(CC)c1=O [Compound 165, (E)-8-(2-Bromo-4,5-methylenedioxystyryl)-1,3-diethylxanthine] | > 100

Structure (SMILES) | MLD (minimum lethal dose) [mg/kg]
CCn1c(=O)c2c(nc(/C=C/c3cc4c(cc3Br)OCO4)n2C)n(CC)c1=O [Compound 166, (E)-8-(2-Bromo-4,5-methylenedioxystyryl)-1,3-diethyl-7-methylxanthine] | > 100
CCn1c(=O)c2[nH]c(/C=C/c3ccccc3F)nc2n(CC)c1=O [Compound 167, (E)-1,3-Diethyl-8-(2-fluorostyryl)xanthine] | > 100
CCn1c(=O)c2[nH]c(/C=C/c3ccc(N(C)C)cc3)nc2n(CC)c1=O [Compound 169, (E)-8-[4-(N,N-Dimethylamino)styryl]-1,3-diethylxanthine] | > 100
CCn1c(=O)c2[nH]c(/C=C/c3ccc(-c4ccccc4)cc3)nc2n(CC)c1=O [Compound 170, (E)-1,3-Diethyl-8-(4-phenylstyryl)xanthine] | > 100
CCn1c(=O)c2c(nc(/C=C/c3ccc(-c4ccccc4)cc3)n2C)n(CC)c1=O [Compound 171, (E)-1,3-Diethyl-7-methyl-8-(4-phenylstyryl)xanthine] | > 100
CCn1c(=O)c2[nH]c(/C=C/c3ccc(OC)c(F)c3)nc2n(CC)c1=O [Compound 172, (E)-1,3-Diethyl-8-(3-fluoro-4-methoxystyryl)xanthine] | > 100
CCn1c(=O)c2[nH]c(/C=C/c3ccc(OC)c(C)c3)nc2n(CC)c1=O [Compound 174, (E)-1,3-Diethyl-8-(4-methoxy-3-methylstyryl)xanthine] | > 100
CCn1c(=O)c2[nH]c(/C=C/c3ccc(F)c(Cl)c3)nc2n(CC)c1=O [Compound 176, (E)-8-(3-Chloro-4-fluorostyryl)-1,3-diethylxanthine] | > 100
CCn1c(=O)c2c(nc(/C=C/c3ccc(F)c(Cl)c3)n2C)n(CC)c1=O [Compound 177, (E)-8-(3-Chloro-4-fluorostyryl)-1,3-diethyl-7-methylxanthine] | > 100
CCn1c(=O)c2[nH]c(/C=C/c3cc(OC)c4c(c3)OCO4)nc2n(CC)c1=O [Compound 178, (E)-1,3-Diethyl-8-(3-methoxy-4,5-methylenedioxystyryl)xanthine] | > 100
CCn1c(=O)c2[nH]c(/C=C/c3cccc(F)c3C)nc2n(CC)c1=O [Compound 180, (E)-1,3-Diethyl-8-(3-fluoro-2-methylstyryl)xanthine] | > 100
CCn1c(=O)c2c(nc(/C=C/c3ccc(O)c(O)c3)n2C)n(CC)c1=O [Compound 182, (E)-8-(3,4-Dihydroxystyryl)-1,3-diethyl-7-methylxanthine] | > 100
CCn1c(=O)c2c(nc(/C=C/c3ccc(OC)c(O)c3)n2C)n(CC)c1=O [Compound 183, (E)-1,3-Diethyl-8-(3-hydroxy-4-methoxystyryl)-7-methylxanthine] | > 100
CCn1c(=O)c2c(nc(/C=C/c3ccc(OCCCCBr)cc3)n2C)n(CC)c1=O [Compound 186, (E)-8-[4-(4-Bromobutoxy)styryl]-1,3-diethyl-7-methylxanthine] | > 100
CCn1c(=O)c2c(nc(/C=C/c3ccc(OCCCCN=[N+]=[N-])cc3)n2C)n(CC)c1=O [Compound 187, (E)-8-[4-(4-Azidobutoxy)styryl]-1,3-diethyl-7-methylxanthine] | > 100
CCn1c(=O)c2c(nc(/C=C/c3ccc(OCCCCN)cc3)n2C)n(CC)c1=O [Compound 188, (E)-8-[4-(4-Aminobutoxy)styryl]-1,3-diethyl-7-methylxanthine] | > 100
